Measured values taken from patent publication US7795207B2, “Lipopeptide compositions” (priority 2005, dated 2010).
In brackets after ≈: the same amount, converted by molar mass.

How the values were obtained:
[1] = literature (Oleson et al. 2000); cited from earlier work
[2] = test system: fresh venal human blood; details: for Reduction of the hemolysis in %: lipopeptide 1,600 mg/l in presence of 2.5% SBE-β-CD
[3] = test system: E. faecalis ATCC 29212; assay: Minimum inhibitory concentration in presence of HSA; format: cell-based, Enterococcus faecalis
[4] = test system: Staphylococcus aureus ATCC 29213; assay: Minimum inhibitory concentration (agar dilution, CLSI); format: cell-based
Experimental: (§1) The effects of cyclodextrins on the antibiotic activity von Ca2Cl2 friulimicin B were investigated by in vitro experiments about the growth inhibition of Gram-positive bacteria. Herein, the minimum inhibitory concentration for the growth inhibition was determined by cultivation of the bacteria on nutritious agar (agar dilution) according to the CLSI (previously NCCLS) rules (National Committee for Clinical Laboratory Standards. 2003. Methods for dilution antimicrobial susceptibility tests for bacteria that grow aerobically; approved standard—6th ed. Document M7-A6. Clinical and Laboratory Standards Institute, Wayne, Pa., USA). Different molar mixture ratios of the lipopeptide Ca2Cl2 friulimicin B were tested with SBE-β-CD in Ca ions-adjusted Müller-Hinton medium. The Gram-positive strains tested for the cultivation methods were: • Staphylococcus carnosus ATCC 51365 {DSM 20501) • Staphylococcus aureus ATCC 29213 (DSM 2569) • Staphylococcus aureus ATCC 33592 (DSM 11729) • Staphylococcus epidermidis ATCC 12228 (DSM 1798)

[5] = literature; cited from earlier work
[6] = test system: Female mice (CFW-1); assay: Acute toxicity in mice after one-time iv administration; format: in vivo
Experimental: Female mice (CFW-1 (Harlan Winkelmann, Germany)) were administered once (iv) the Ca2Cl2 friulimicin B solutions with and without SBE-β-CD. The mortality rate of the animals within 24 hours was determined.

[7] = test system: Staphylococcus epidermidis ATCC 12228; assay: Minimum inhibitory concentration (agar dilution, CLSI); format: cell-based
Experimental: as §1

[8] = test system: Staphylococcus carnosus ATCC 51365; assay: as above; format: cell-based
Experimental: as §1

[9] = test system: Staphylococcus aureus ATCC 33592; assay: as above; format: cell-based
Experimental: as §1

[10] = test system: canine blood; assay: Hemolysis test with venal canine blood; format: cell-based; details: molar ratio SBE-β-CD:friulimicin B 2.5:1
Experimental: Ca2Cl2 friulimicin B was dissolved in 0.9% NaCl solution with and without addition of SBE-β-CD. In the batch with SBE-β-CD there was a molar ratio (SBE-β-CD:friulimicin B) of 2.5:1. […] Statements of the content of Ca2Cl2 friulimicin B (in mg/l) refer to the final concentrations of the free acid of the friulimicin B in the reaction batch. The statements of the molar ratio refer to the free acids of friulimicin B and SBE-β-CD, respectively.

[11] = test system: Streptococcus pneumoniae L3TV; assay: Intranasal lung infection model in the mouse; format: in vivo; details: mice, total dose 20 mg/kg subcutaneously 1 and 4 hours after infection; SBE-β-CD:friulimicin B 2.5:1; Mann Whitney Test p=0.0159
Experimental: Herein, Ca2Cl2 friulimicin B serves as an example molecule for the antibiotics of the class of the lipopeptides and sulfobutylether-β-cyclodextrin (SBE-β-CD) as examples for modified β-cyclodextrins. Shown are the results of a study with an intranasal lung infection model in the mouse.
Female mice (CFW-1 (Harlan Winkelmann, Germany)) were infected intranasally with Streptococcus pneumoniae L3TV (1*10^6 CFU/mouse). 1 and 4 hours after the infection, the animals were subcutaneously administered a total dose of 20 mg Ca2Cl2 friulimicin B/kg with and without SBE-BCD (5%). 24-hours after the infection, a determination of the number of germs in the lung was performed by plating-out of a tissue disintegration on agar plates in a manner the person skilled in the art is familiar with.

[12] = molar ratio Friulimicin:SBE-β-CD 1:0
[13] = molar ratio Friulimicin:SBE-β-CD 1:2.5
[14] = molar ratio Friulimicin:SBE-β-CD 1:4

CCCCCCCCCC(=O)N[C@@H](Cc1c[nH]c2ccccc12)C(=O)N[C@H](CC(N)=O)C(=O)N[C@@H](CC(=O)O)C(=O)N[C@@H]1C(=O)NCC(=O)N[C@@H](CCCN)C(=O)N[C@@H](CC(=O)O)C(=O)N[C@H](C)C(=O)N[C@@H](CC(=O)O)C(=O)NCC(=O)N[C@H](CO)C(=O)N[C@@H]([C@H](C)CC(=O)O)C(=O)N[C@@H](CC(=O)c2ccccc2N)C(=O)O[C@@H]1C [daptomycin]
Toxicity on the skeletal muscle [1]: damages the skeletal muscle

CCC(C)CCCCCC=CCC(=O)NC(CC(=O)O)C(=O)NC1C(=O)N2CCCCC2C(=O)NC(C(C)C(=O)O)C(=O)NC(CC(=O)O)C(=O)NCC(=O)NC(CC(=O)O)C(=O)NCC(=O)NC(C(C)N)C(=O)NC(C(C)C)C(=O)N2CCCC2C(=O)NC1C (stereo not drawn) [Amphomycin, reference compound]
Reduction of the hemolysis in % [2]: 99.6%

CCCCC/C=C\C/C=C\C/C=C\CCCCC(=O)NC(CC(N)=O)C(=O)NC1C(=O)N2CCCCC2C(=O)NC(C(C)C(=O)O)C(=O)NC(CC(=O)O)C(=O)NCC(=O)NC(CC(=O)O)C(=O)NCC(=O)NC(C(C)N)C(=O)NC(C(C)C)C(=O)N2CCCC2C(=O)NC1C (stereo not drawn) [CBS000204]
Reduction of the hemolysis in % [2]: 87.0%

CC(C)CCCCCCC/C=C\CC(=O)N[C@@H](CC(N)=O)C(=O)N[C@@H]1C(=O)N2CCCC[C@@H]2C(=O)N[C@@H]([C@H](C)C(=O)O)C(=O)N[C@@H](CC(=O)O)C(=O)NCC(=O)N[C@@H](CC(=O)O)C(=O)NCC(=O)N[C@H]([C@H](C)N)C(=O)N[C@@H](C(C)C)C(=O)N2CCC[C@H]2C(=O)N[C@@H]1C [Na2 friulimicin B, friulimicin B]
MIC value ([3]; medium addition 0% HSA): 4 µg/mL
MIC value ([3]; medium addition 4% HSA): >64 µg/mL
MIC value ([4]; medium addition 0% HSA): 2 µg/mL (≈ 1.53 µM)
MIC value ([4]; medium addition 4% HSA): 8 µg/mL (≈ 6.14 µM)

CC(C)C1NC(=O)C(C(C)N)NC(=O)CNC(=O)C(CC(=O)O)NC(=O)CNC(=O)C(CC(=O)O)NC(=O)C(C(C)C(=O)O)NC(=O)C2CCCCN2C(=O)C(NC(=O)C(CC(N)=O)NC(=O)c2ccc(CCc3ccc(CCc4ccccc4)cc3)cc2)C(C)NC(=O)C2CCCN2C1=O (stereo not drawn) [CBS000217]
Reduction of the hemolysis in % [2]: 99.5%

lichenysin
Hemolytic action [5]: act in a hemolytic manner

surfactin A
Hemolytic action [5]: act in a hemolytic manner

iturin A
Hemolytic action [5]: act in a hemolytic manner

CC(C)CCCCCCC/C=C\CC(=O)N[C@@H](CC(N)=O)C(=O)N[C@@H]1C(=O)N2CCCC[C@@H]2C(=O)N[C@@H]([C@H](C)C(=O)O)C(=O)N[C@@H](CC(=O)O)C(=O)NCC(=O)N[C@@H](CC(=O)O)C(=O)NCC(=O)N[C@H]([C@H](C)N)C(=O)N[C@@H](C(C)C)C(=O)N2CCC[C@H]2C(=O)N[C@@H]1C [Ca2Cl2 friulimicin B, friulimicin B]
Effect of HP-β-CD on the induced hemolysis [2]: suppress
Mortality rate within 24 hours ([6]; 300 mg/kg iv once, with addition of SBE-β-CD (molar ratio 2.5:1)): 0% (0/3)
Mortality rate within 24 hours ([6]; 300 mg/kg iv once, without addition of SBE-β-CD): 0% (0/3)
Mortality rate within 24 hours ([6]; 350 mg/kg iv once, without addition of SBE-β-CD): 66% (2/3)
Mortality rate within 24 hours ([6]; 400 mg/kg iv once, with addition of SBE-β-CD (molar ratio 2.5:1)): 0% (0/3)
Mortality rate within 24 hours ([6]; 400 mg/kg iv once, without addition of SBE-β-CD): 100% (3/3)
Antibiotic activity (MIC) [7, 12]: 0.5 µg/mL
Antibiotic activity (MIC) [7, 13]: 0.5 µg/mL
Antibiotic activity (MIC) [7, 14]: 0.5 µg/mL
Antibiotic activity (MIC) [8, 12]: 0.5 µg/mL
Antibiotic activity (MIC) [8, 13]: 0.5 µg/mL
Antibiotic activity (MIC) [8, 14]: 0.5 µg/mL
Antibiotic activity (MIC) [4, 12]: 0.5 µg/mL
Antibiotic activity (MIC) [4, 13]: 0.5 µg/mL
Antibiotic activity (MIC) [4, 14]: 0.5 µg/mL
Antibiotic activity (MIC) [9, 12]: 1 µg/mL
Antibiotic activity (MIC) [9, 13]: 1 µg/mL
Antibiotic activity (MIC) [9, 14]: 1 µg/mL
Reduction of the hemolysis by the addition of SBE-β-CD ([10]; friulimicin B 800 mg/l): 55%
Reduction of the hemolysis by the addition of SBE-β-CD ([10]; friulimicin B 5,000 mg/l): 100%
Antibiotic effect (number of germs in the lung 24 hours after infection), with vs without SBE-β-CD [11]: increases the antibiotic effect

CCCCCCCCCCCCCCCCCC(=O)NC(CC(N)=O)C(=O)NC1C(=O)N2CCCCC2C(=O)NC(C(C)C(=O)O)C(=O)NC(CC(=O)O)C(=O)NCC(=O)NC(CC(=O)O)C(=O)NCC(=O)NC(C(C)N)C(=O)NC(C(C)C)C(=O)N2CCCC2C(=O)NC1C (stereo not drawn) [CBS000203]
Reduction of the hemolysis in % [2]: 41.3%
